Experiments:
B1R receptor of the rat = target: T1, B1R receptor of the rat (Rattus norvegicus, UniProt P97583); assay: Functional study on the bradykinin receptor 1 (B1R), FLIPR Ca2+ assay, rB1R cells; type: cell-based; settings: agonist Des-Arg9-bradykinin 100 nM, % inhibition compared with the maximum achievable inhibition; for inhibition at 10 µM: CHO-K1, test substance 10 μM, read-out: B1R Antagonism, rat [10 μM] % Inhibition; for B1R Antagonism, rat [10 μM] % Inhibition: test substance 10 μM, rB1R CHO K1 cells
T1 construct: host or cells: CHO K1 cells (Chinese hamster ovary), stably transfected
T1 sequence (P97583 1-337): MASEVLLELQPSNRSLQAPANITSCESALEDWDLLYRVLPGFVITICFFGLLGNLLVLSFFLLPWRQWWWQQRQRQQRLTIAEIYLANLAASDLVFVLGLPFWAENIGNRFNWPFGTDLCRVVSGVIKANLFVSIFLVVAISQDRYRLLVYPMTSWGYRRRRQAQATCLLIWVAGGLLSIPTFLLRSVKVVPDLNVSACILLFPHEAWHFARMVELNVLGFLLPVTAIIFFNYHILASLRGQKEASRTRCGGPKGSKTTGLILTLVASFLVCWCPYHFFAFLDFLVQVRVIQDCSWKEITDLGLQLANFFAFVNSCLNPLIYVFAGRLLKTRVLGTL
In short: (§1)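 CHO K1 cells stably expressing human or rat B1R, Fluo-4-loaded; test compound 10 μM added first (activation % vs agonist), then after 10 min 0.5 nM Lys-Des-Arg9-bradykinin (human) or 100 nM Des-Arg9-bradykinin (rat). Ca2+ peak fluorescence by FLIPR; % inhibition relative to maximum achievable inhibition.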

human B1R receptor = target: T2, human B1R receptor (Homo sapiens, UniProt P46663); assay: Functional study on the bradykinin receptor 1 (B1R), FLIPR Ca2+ assay, hB1R cells; type: cell-based; settings: agonist Lys-Des-Arg9-bradykinin 0.5 nM, % inhibition compared with the maximum achievable inhibition; for inhibition at 10 µM: CHO-K1, test substance 10 μM, read-out: B1R Antagonism, human [10 μM] % Inhibition; for B1R Antagonism, human [10 μM] % Inhibition: test substance 10 μM, hB1R CHO K1 cells
T2 construct: host or cells: CHO K1 cells (Chinese hamster ovary), stably transfected
T2 sequence (P46663 1-353): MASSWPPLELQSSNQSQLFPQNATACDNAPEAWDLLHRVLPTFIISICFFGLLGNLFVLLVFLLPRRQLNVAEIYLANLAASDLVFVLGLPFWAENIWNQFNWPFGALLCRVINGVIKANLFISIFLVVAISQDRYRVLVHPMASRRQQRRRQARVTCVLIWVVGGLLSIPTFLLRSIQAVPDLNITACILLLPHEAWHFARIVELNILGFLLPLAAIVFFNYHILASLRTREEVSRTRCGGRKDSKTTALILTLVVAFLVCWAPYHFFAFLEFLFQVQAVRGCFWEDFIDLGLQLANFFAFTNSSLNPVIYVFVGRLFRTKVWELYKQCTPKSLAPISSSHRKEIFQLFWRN
In short: as §1

inhibition at 10 µM (B1R receptor of the rat)	inhibition at 10 µM (human B1R receptor)	B1R Antagonism, rat [10 μM] % Inhibition (B1R receptor of the rat)	B1R Antagonism, human [10 μM] % Inhibition (human B1R receptor)	Structure (SMILES)
97.3%	70.2%			COc1cc(C)c(S(=O)(=O)N2CCCCC2COCC(=O)Nc2cc(C)nc3ccccc23)c(C)c1 (stereo not drawn) [Example 244, 2-((1-(4-methoxy-2,6-dimethylphenylsulfonyl)piperidin-2-yl)methoxy)-N-(2-methylquinolin-4-yl)acetamide]
80.5%	69.9%			CCOCCN1CCN(C(=O)COCC2Cc3ccccc3CN2S(=O)(=O)c2c(C)cc(C)cc2C)CC1 (stereo not drawn) [Example 245, 1-(4-(2-ethoxyethyl)piperazin-1-yl)-2-((2-(mesitylsulfonyl)-1,2,3,4-tetrahydroisoquinolin-3-yl)methoxy)ethanone]
72.1%	56.4%			COCCN1CCN(C(=O)COCC2Cc3ccccc3CN2S(=O)(=O)c2c(C)cc(C)cc2C)CC1 (stereo not drawn) [Example 246, 2-((2-(mesitylsulfonyl)-1,2,3,4-tetrahydroisoquinolin-3-yl)methoxy)-1-(4-(2-methoxyethyl)piperazin-1-yl)ethanone]
96.8%	70.8%			COc1cc(C)c(S(=O)(=O)N2CCCCC2COCC(=O)N2CCCC2c2ccccn2)c(C)c1 (stereo not drawn) [Example 247, 2-((1-(4-methoxy-2,6-dimethylphenylsulfonyl)piperidin-2-yl)methoxy)-1-(2-(pyridin-2-yl)pyrrolidin-1-yl)ethanone]
89.9%	95.6%			COc1cc(C)c(S(=O)(=O)N2CCCCC2COCC(=O)NCCN2CCN(C)CC2)c(C)c1 (stereo not drawn) [Example 248, 2-((1-(4-methoxy-2,6-dimethylphenylsulfonyl)piperidin-2-yl)methoxy)-N-(2-(4-methylpiperazin-1-yl)ethyl)acetamide]
		92.36%	59.22%	COc1cc(C)c(S(=O)(=O)N2CCCCC2COCC(=O)NCC(c2ccc(C(F)(F)F)cc2)N2CCOCC2)c(C)c1 (stereo not drawn) [Example 249, 2-((1-(4-methoxy-2,6-dimethylphenylsulfonyl)piperidin-2-yl)methoxy)-N-(2-morpholin-2-(4-(trifluoromethyl)phenyl)ethyl)acetamide]
90.5%	96.8%			COc1cc(C)c(S(=O)(=O)N2CCCCC2COCC(=O)NCCCCCN(C)C)c(C)c1 (stereo not drawn) [Example 250, N-(5-(dimethylamino)pentyl)-2-((1-(4-methoxy-2,6-dimethylphenylsulfonyl)piperidin-2-yl)methoxy)acetamide]
98.5%	45.8%			COc1cc(C)c(S(=O)(=O)N2CCCCC2COCC(=O)NCC(c2ccccc2Cl)N2CCOCC2)c(C)c1 (stereo not drawn) [Example 251, N-(2-(2-chlorophenyl)-2-morpholinoethyl)-2-((1-(4-methoxy-2,6-dimethylphenylsulfonyl)piperidin-2-yl)methoxy)acetamide]
97.9%	102%			COc1ccc(C(CNC(=O)COCC2CCCCN2S(=O)(=O)c2c(C)cc(OC)cc2C)N2CCCC2)cc1 (stereo not drawn) [Example 252, 2-((1-(4-methoxy-2,6-dimethylphenylsulfonyl)piperidin-2-yl)methoxy)-N-(2-(4-methoxyphenyl)-2-(pyrrolidin-1-yl)ethyl)acetamide]
101%	59.3%			COc1cc(OC)cc(N2CCN(C(=O)COCC3CCCCN3S(=O)(=O)c3c(Cl)cc(Cl)cc3Cl)CC2)c1 (stereo not drawn) [Example 253, 1-(4-(3,5-dimethoxyphenyl)piperazin-1-yl)-2-((1-(2,4,6-trichlorophenylsulfonyl)piperidin-2-yl)methoxy)ethanone]
97.8%	105%			CC(C)N(CCN1CCN(C(=O)COCC2CCCCN2S(=O)(=O)c2c(Cl)cc(Cl)cc2Cl)CC1)C(C)C (stereo not drawn) [Example 254, 1-(4-(2-(diisopropylamino)ethyl)piperazin-1-yl)-2-((1-(2,4,6-trichlorophenylsulfonyl)piperidin-2-yl)methoxy)ethanone]
101%	105%			O=C(COCC1CCCCN1S(=O)(=O)c1c(Cl)cc(Cl)cc1Cl)N(C1CC1)C1CCN(Cc2ccccc2)CC1 (stereo not drawn) [Example 255, N-(1-benzylpiperidin-4-yl)-N-cyclopropyl-2-((1-(2,4,6-trichlorophenylsulfonyl)piperidin-2-yl)methoxy)acetamide]
91%	50.2%			O=C(COCC1CCCCN1S(=O)(=O)c1c(Cl)cc(Cl)cc1Cl)NCC(c1cccnc1)N1CCOCC1 (stereo not drawn) [Example 256, N-(2-morpholino-2-(pyridin-3-yl)ethyl)-2-((1-(2,4,6-trichlorophenylsulfonyl)piperidin-2-yl)methoxy)acetamide]
99.9%	34.3%			CCn1nccc1NC(=O)COCC1CCCCN1S(=O)(=O)c1c(C)cc(OC)cc1C (stereo not drawn) [Example 257, N-(1-ethyl-1H-pyrazol-5-yl)-2-((1-(4-methoxy-2,6-dimethylphenylsulfonyl)piperidin-2-yl)methoxy)acetamide]
		99.75%	75.25%	COc1cc(C)c(S(=O)(=O)N2CCCCC2COCC(=O)Nc2cccc3cnccc23)c(C)c1 (stereo not drawn) [Example 258]
99.3%	66.1%			COc1cc(C)c(S(=O)(=O)N2CCCCC2COCC(=O)NCCN(C)C)c(C)c1 (stereo not drawn) [Example 259, N-(2-(dimethylamino)ethyl)-2-((1-(4-methoxy-2,6-dimethylphenylsulfonyl)piperidin-2-yl)methoxy)acetamide]
60.6%	102%			COc1cc(C)c(S(=O)(=O)N2CCCCC2COCC(=O)NCCCN2C(C)CCCC2C)c(C)c1 (stereo not drawn) [Example 260, N-(3-(2,6-dimethylpiperidin-1-yl)propyl)-2-((1-(4-methoxy-2,6-dimethylphenylsulfonyl)piperidin-2-yl)methoxy)acetamide]
98.9%	78.9%			COc1cc(C)c(S(=O)(=O)N2CCCCC2COCC(=O)NC(CN(C)C)c2ccccc2)c(C)c1 (stereo not drawn) [Example 261, N-(2-(dimethylamino)-1-phenylethyl)-2-((1-(4-methoxy-2,6-dimethylphenylsulfonyl)piperidin-2-yl)methoxy)acetamide]
99.7%	81.8%			COc1cc(C)c(S(=O)(=O)N2CCCCC2COCC(=O)NC(CN2CCCC2)c2ccccc2)c(C)c1 (stereo not drawn) [Example 262, 2-((1-(4-methoxy-2,6-dimethylphenylsulfonyl)piperidin-2-yl)methoxy)-N-(1-phenyl-2-(pyrrolidin-1-yl)ethyl)acetamide]
97.8%	100%			COc1cc(C)c(S(=O)(=O)N2CCCCC2COCC(=O)NC(CN2CCN(C)CC2)c2ccccc2)c(C)c1 (stereo not drawn) [Example 263, 2-((1-(4-methoxy-2,6-dimethylphenylsulfonyl)piperidin-2-yl)methoxy)-N-(2-(4-methylpiperazin-1-yl)-1-phenylethyl)acetamide]
31.7%	103%			O=C(COCC1Cc2ccccc2CN1S(=O)(=O)c1ccccc1)Nc1cccc(N2CCOCC2)c1 (stereo not drawn) [Example 264, N-(3-morpholinophenyl)-2-((2-(phenylsulfonyl)-1,2,3,4-tetrahydroisoquinolin-3-yl)methoxy)acetamide]
51.3%	100%			O=C(COCC1Cc2ccccc2CN1S(=O)(=O)c1ccc(Cl)cc1Cl)Nc1cccc(N2CCOCC2)c1 (stereo not drawn) [Example 265, 2-((2-(2,4-dichlorophenylsulfonyl)-1,2,3,4-tetrahydroisoquinolin-3-yl)methoxy)-N-(3-morpholinophenyl)acetamide]
2.12%	102%			O=C(COCC1CCCCN1S(=O)(=O)c1ccc(Cl)c(Cl)c1)N1CCOC(CN2CCCCC2)C1 (stereo not drawn) [Example 266, 2-((1-(3,4-dichlorophenylsulfonyl)piperidin-2-yl)methoxy)-1-(2-(piperidin-1-ylmethyl)morpholino)ethanone]
95.2%	104%			COc1cc(C)c(S(=O)(=O)N2CCCC2COCC(=O)N2CCC(N3CCN(C)CC3)CC2)c(C)c1 (stereo not drawn) [Example 267, 2-((1-(4-methoxy-2,6-dimethylphenylsulfonyl)pyrrolidin-2-yl)methoxy)-1-(4-(4-methylpiperazin-1-yl)piperidin-1-yl)ethanone]
